From patent US20220087996A1, “Histone acetylase p300 inhibitor and use thereof” (HINOVA PHARMACEUTICALS INC., priority 2018, published 2022) come the findings set out here.

pIC50: −log10 of the molar value.

The test system of one assay is CWR22RV1 cells. The assay can be described thus: Inhibition of proliferation of CWR22RV1 cells (CCK-8). The assay is classed as cell-based, human. The following applies: 6 days culture, read-out: IC50 against CWR22RV1 cells. The procedure:
1) CWR22RV1 cells were subcultured in cell culture medium, and the cells in good growth condition were seeded in a 96-well plate, 80 μL for each well, and the cell number in each well was 1500. The plate was incubated overnight in a 37° C., 5% CO2 cell incubator. 2) The drug was prepared as 30 mM stock solution with dimethyl sulfoxide (DMSO). Prior to use, the stock solution was diluted 3 times with DMSO, and then further diluted as 3-fold gradient to obtain 9 concentration gradients. Then, each concentration of compound was diluted 200 times with the culture solution (ensuring that the DMSO concentration in the culture system was 0.1%), and two replicate wells were set for each concentration. 20 μL of diluted compound solution was added to the cell culture well (with final concentrations of 10 μM, 3.3 μM. 1.1 μM . . . ), and the plate was gently shaken to mix. In addition, 3 negative control wells containing only cells and 3 blank control wells containing only culture medium were included (6 wells were each added 20 μL DMSO diluted 200 times with culture medium). 2. Result detection: (1) After culturing for 6 days, 10 μL CCK-8 was added to each well, and the plate was continually cultured in a 37° C., 5% CO2 cell incubator for 2.5 h. (2) The absorbance (OD value) was detected at 450 nm using a multifunctional microplate reader. (3) The data were analyzed by Dose-response-inhibition equation in the software GraphPad Prism6, and the IC50 value was obtained.
The term pIC50 denotes the IC50 on a negative log10 scale, so that one unit is a factor of ten. Consider `CNC(=O)Nc1ccc2c(c1)CC[C@@]21OC(=O)N(CC(=O)N2CCCC2c2ccccc2C)C1=O` (stereo partly shown) [Example 324], for which the pIC50 is less than 5.70. On the same count and under the same terms, the same measure for `CNC(=O)Nc1ccc2c(c1)CC[C@@]21OC(=O)N(CC(=O)N2C(c3ccc(F)c(Cl)c3)CC[C@@H]2C)C1=O` (stereo in doubt) [Example 369, 1-((R)-3′-(2-((2R,5S)-2-(3-chloro-4-fluorophenyl)-5-methylpyrrolidin-1-yl)-2-oxoethyl)-2′,4′-dioxo-2,3-dihydrospiro[indene-1,5′-oxazolidine]-5-yl)-3-methylurea]: less than 5.70; for `CNC(=O)Nc1ccc2c(c1)C1(CC1)CC21OC(=O)N(CC(=O)N2[C@@H](C)CC[C@H]2c2ccc(F)cc2)C1=O` (stereo partly drawn) [Example 373, 1-(3′-(2-((2S,5S)-2-(4-fluorophenyl)-5-methylpyrrolidin-1-yl)-2-oxoethyl)-2′,4′-dioxo-dihydrospiro[cyclopropane-1,1′-indene-3′,5′-oxazolidin]-6′-yl)-3-methylurea]: less than 5.70.

Staying with this assay, now noted: Homo sapiens, CWR22Rv1, 144 h, 6 days culture, read-out: IC50 against CWR22RV1 cells.
For `CNC(=O)Nc1ccc2c(c1)CC[C@@]21OC(=O)N(CC(=O)N2C(C)CC[C@H]2CN2CCC3(CC2)CC3(F)F)C1=O` (stereo partly drawn) [Example 378, 1-((1R)-3′-(2-((2S)-2-((1,1-difluoro-6-aza-spiro[2.5]octan-6-yl)methyl)-5-methylpyrrolidin-1-yl)-2-oxoethyl)-2′,4′-dioxo-2,3-dihydrospiro[indene-1,5′-oxazolidine]-5-yl)-3-methylurea], the pIC50 is less than 5.70. As for `CNC(=O)Nc1ccc2c(c1)CC[C@@]21OC(=O)N(CC(=O)N2C(c3ccc(F)cc3)CC[C@H]2CO)C1=O` (stereo partly drawn) [Example 363, 1-((1R)-3′-(2-((5S)-2-(4-fluorophenyl)-5-(hydroxymethyl)pyrrolidin-1-yl)-2-oxoethyl)-2′,4′-dioxo-2,3-dihydrospiro[indene-1,5′-oxazolidine]-5-yl)-3-methylurea], the pIC50 is less than 5.70. With `CNC(=O)Nc1ccc2c(c1)CC[C@@]21OC(=O)N(CC(=O)N2C(C)CCC2c2ccc(F)cc2C(F)(F)F)C1=O` (stereo partly drawn) [Example 356, 1-((1R)-3′-(2-(2-(4-fluoro-2-(trifluoromethyl)phenyl)-5-methylpyrrolidin-1-yl)-2-oxoethyl)-2′,4′-dioxo-2,3-dihydrospiro[indene-1,5′-oxazolidine]-5-yl)-3-methylurea], the pIC50 is less than 5.70. Take `CNC(=O)Nc1ccc2c(c1)CC[C@@]21OC(=O)N(CC(=O)N2C(C)CCC2c2ccc(C(F)(F)F)cc2C)C1=O` (stereo partly drawn) [Example 352, 1-methyl-3-((1R)-3′-(2-(2-methyl-5-(2-methyl-4-(trifluoromethyl)phenyl)pyrrolidin-1-yl)-2-oxoethyl)-2′,4′-dioxo-2,3-dihydrospiro[indene-1,5′-oxazolidine]-5-yl)urea]: the pIC50 was less than 5.70.

Turning to `CNC(=O)Nc1ccc2c(c1)CC[C@@]21OC(=O)N(CC(=O)N2CCCC2c2nccn2C)C1=O` (stereo partly shown) [Example 111], the pIC50 was less than 5.70.

With `CNC(=O)Nc1ccc2c(c1)CC[C@]21OC(=O)N(CC(=O)N2CCC[C@H]2c2ccccc2)C1=O` [Example 310, 1-((S)-2′,4′-dioxo-3′-(2-oxo-2-((S)-2-phenylpyrrolidin-1-yl)ethyl)-2,3-dihydrospiro[indene-1,5′-oxazolidine]-5-yl)-3-methylurea], the pIC50 was less than 5.70. As for `CNC(=O)Nc1cc(F)c2c(c1)CC[C@]21OC(=O)N(CC(=O)N2[C@@H](C)CC[C@H]2c2ccc(F)c(F)c2)C1=O` [Example 385, 1-((S)-3′-(2-((2S,5S)-2-(3,4-difluorophenyl)-5-methylpyrrolidin-1-yl)-2-oxoethyl)-7-fluoro-2′,4′-dioxo-2,3-dihydrospiro[indene-1,5′-oxazolidine]-5-yl)-3-methylurea], the pIC50 was less than 5.70. With `CNC(=O)Nc1ccc2c(c1)CC[C@@]21OC(=O)N(CC(=O)N2CCC2c2ccccc2)C1=O` (stereo partly shown) [Example 106], the pIC50 was less than 5.70.

Turning to `CNC(=O)Nc1cc2c(cc1F)[C@]1(CC2)OC(=O)N(CC(=O)N2[C@@H](C)CC[C@H]2c2ccc(F)c(F)c2)C1=O` [Example 391, 1-((S)-3′-(2-((2S,5S)-2-(3,4-difluorophenyl)-5-methylpyrrolidin-1-yl)-2-oxoethyl)-6-fluoro-2′,4′-dioxo-2,3-dihydrospiro[indene-1,5′-oxazolidine]-5-yl)-3-methylurea], the pIC50 was less than 5.70. With `CNC(=O)Nc1ccc2c(c1)CC[C@@]21OC(=O)N(CC(=O)N2C(c3ccc(F)cc3)CC[C@H]2C)C1=O` (stereo partly drawn) [Example 18, 1-((R)-3′-(2-((5R)-2-(4-fluorophenyl)-5-methylpyrrolidin-1-yl)-2-oxoethyl)-2′,4′-dioxo-2,3-dihydrospiro[indene-1,5′-oxazolidine]-5-yl)-3-methylurea], the pIC50 was no less than 6.30. For `CNC(=O)Nc1ccc2c(c1)CCC21OC(=O)N(CC(=O)N2CCCC2c2ncc[nH]2)C1=O` (stereo not shown) [Example 330, 1-(3′-(2-(2-(1H-imidazol-2-yl)pyrrolidin-1-yl)-2-oxoethyl)-2′,4′-dioxo-2,3-dihydrospiro[indene-1,5′-oxazolidine]-5-yl)-3-methylurea], the pIC50 is less than 5.70. The same measure, in the same setting: next, `CNC(=O)Nc1ccc2c(c1)CCC21OC(=O)N(CC(=O)N2CCCCC23CCN(C(C)=O)CC3)C1=O` (stereo not shown) [Example 355, 1-(3′-(2-(9-acetyl-1,9--1-yl)-2-oxoethyl)-2′,4′-dioxo-2,3-dihydrospiro[indene-1,5′-oxazolidine]-5-yl)-3-methylurea]: less than 5.70. In the case of `Cc1nnn(C)c1-c1ccc2c(c1)CC[C@@]21OC(=O)N(CC(=O)N2[C@@H](C)CC[C@H]2c2ccc(F)cc2)C1=O` [Example 221, (R)-5-(1,4-dimethyl-1H-1,2,3-triazole-5-yl)-3′-(2-((2S,5S)-2-(4-fluorophenyl)-5-methylpyrrolidin-1-yl)-2-oxoethyl)-2,3-dihydrospiro[indene-1,5′-oxazolidine]-2′,4′-dione], the negative logarithm of the IC50 (pIC50) is less than 5.70.

As to `CNC(=O)Nc1ccc2c(c1)CC[C@@]21OC(=O)N(CC(=O)N2CCCC2c2ccccc2F)C1=O` (stereo partly drawn) [Example 323, 1-((1R)-3′-(2-(2-(2-fluorophenyl)pyrrolidin-1-yl)-2-oxoethyl)-2′,4′-dioxo-2,3-dihydrospiro[indene-1,5′-oxazolidine]-5-yl)-3-methylurea], the pIC50 is less than 5.70. Still for that read-out and setting: next, `CNC(=O)Nc1ccc2c(c1)CC[C@@]21OC(=O)N(CC(=O)N2C(C)CCC2(c2ccc(OC)cc2)c2ccc(OC)cc2)C1=O` (stereo partly drawn) [Example 349, 1-((1R)-3′-(2-(2,2-bis(4-methoxyphenyl)-5-methylpyrrolidin-1-yl)-2-oxoethyl)-2′,4′-dioxo-2,3-dihydrospiro[indene-1,5′-oxazolidine]-5-yl)-3-methylurea]: less than 5.70. Still for that read-out and setting: the same measure for `CNC(=O)Nc1ccc2c(c1)CC[C@@]21OC(=O)N(CC(=O)N2CCCC2c2cccc3c2OCO3)C1=O` (stereo partly shown) [Example 112]: less than 5.70. Still for that read-out and setting: next, `CNC(=O)Nc1cc(F)c2c(c1)CC[C@]21OC(=O)N(CC(=O)N2[C@@H](C)CC[C@H]2c2cc(F)c(F)c(F)c2)C1=O` [Example 386, 1-((S)-7-fluoro-3′-(2-((2S,5S)-2-methyl-5-(3,4,5-trifluorophenyl)pyrrolidin-1-yl)-2-oxoethyl)-2′,4′-dioxo-2,3-dihydrospiro[indene-1,5′-oxazolidine]-5-yl)-3-methylurea]: less than 5.70; `CNC(=O)Nc1ccc2c(c1)CC[C@@]21OC(=O)N(CC(=O)N2CCCC[C@@H]2c2ccccc2)C1=O` [Example 2]: less than 5.70; `CNC(=O)Nc1ccc2c(c1)CC[C@@]21OC(=O)N(CC(=O)N2CCOC[C@@H]2c2ccccc2)C1=O` [Example 107]: less than 5.70. Turning to `CNC(=O)Nc1ccc2c(c1)CC[C@@]21OC(=O)N(CC(=O)N2CCc3ccccc3C2)C1=O` [Example 100, (R)-1-(3′-(2-(3,4-dihydroisoquinolin-2(1H)-yl)-2-oxoethyl)-2′,4′-dioxo-2,3-dihydrospiro[indene 1,5′-oxazolidine]-5-yl)-3-methylurea], the pIC50 is less than 5.70. On the same count and under the same terms, next, `CNC(=O)Nc1ccc2c(c1)CC[C@@]21OC(=O)N(CC(=O)N2C(C)CCC2c2ccc(Cl)cc2C)C1=O` (stereo partly drawn) [Example 351, 1-((1R)-3′-(2-(2-(4-chloro-2-methylphenyl)-5-methylpyrrolidin-1-yl)-2-oxoethyl)-2′,4′-dioxo-2,3-dihydrospiro[indene-1,5′-oxazolidine]-5-yl)-3-methylurea]: no less than 6.30; `CNC(=O)Nc1ccc2c(c1)CC[C@@]21OC(=O)N(CC(=O)N2C(C)(C)CCCC2(C)C)C1=O` [Example 368]: less than 5.70.

Turning to `CNC(=O)Nc1ccc2c(c1)CC[C@@]21OC(=O)N(CC(=O)N2C(c3ccc(F)c(F)c3)CCC2(C)C)C1=O` (stereo partly drawn) [Example 366, 1-((1R)-3′-(2-(5-(3,4-difluorophenyl)-2,2-dimethylpyrrolidin-1-yl)-2-oxoethyl)-2′,4′-dioxo-2,3-dihydrospiro[indene-1,5′-oxazolidine]-5-yl)-3-methylurea], the pIC50 is 5.70 to 6.30.

Staying with this assay, now noted: Homo sapiens, CWR22Rv1, 144 h, 6 days culture, read-out: IC50 against CWR22RV1 cells (text).
In the case of `CNC(=O)Nc1ccc2c(c1)CC[C@@]21OC(=O)N(CC(=O)N2C(c3ccc(F)cc3)CC[C@H]2C)C1=O` (stereo partly drawn) [Example 18, 1-((R)-3′-(2-((5R)-2-(4-fluorophenyl)-5-methylpyrrolidin-1-yl)-2-oxoethyl)-2′,4′-dioxo-2,3-dihydrospiro[indene-1,5′-oxazolidine]-5-yl)-3-methylurea], the pIC50 was no less than 6.30. For `CNC(=O)Nc1ccc2c(c1)CC[C@@]21OC(=O)N(CC(=O)N2C(C)CCC2c2ccc(Cl)cc2C)C1=O` (stereo partly drawn) [Example 351, 1-((1R)-3′-(2-(2-(4-chloro-2-methylphenyl)-5-methylpyrrolidin-1-yl)-2-oxoethyl)-2′,4′-dioxo-2,3-dihydrospiro[indene-1,5′-oxazolidine]-5-yl)-3-methylurea], the pIC50 was no less than 6.30.
